In general, Ki refers to a measure of affinity in units of concentration, obtained from inhibition or displacement. The EC50 is the concentration at which the effect is half-maximal. High values mean a less potent agent, low ones a more potent agent. A word on the Emax: it is the maximal effect, on the per cent scale that the assay sets.

Structures are written as SMILES.

The target of assay [1] is T1, κ-opioid receptor (Homo sapiens, UniProt P41145). In words: κ-opioid receptor radioligand dose displacement binding assay ([3H]-U69,593). More on the design: expressed in transfected cells; host or cells: HEK-293 (in-house membrane prep). How it is done: Membranes from HEK-293 cells, CHO or U-2 OS cells expressing the recombinant human kappa opioid receptor (K) were prepared by lysing cells in ice cold hypotonic buffer (2.5 mM MgCl2, 50 mM HEPES, pH 7.4) (10 mL/10 cm dish) followed by homogenization with a tissue grinder/Teflon pestle. Membranes were collected by centrifugation at 30,000×g for 15 min at 4° C. and pellets were resuspended in hypotonic buffer to a final concentration of 1-3 mg/mL. Protein concentrations were determined using the BioRad protein assay reagent with bovine serum albumen as standard. Aliquots of κ receptor membranes were stored at −80° C.
T1 sequence (P41145 whole entry): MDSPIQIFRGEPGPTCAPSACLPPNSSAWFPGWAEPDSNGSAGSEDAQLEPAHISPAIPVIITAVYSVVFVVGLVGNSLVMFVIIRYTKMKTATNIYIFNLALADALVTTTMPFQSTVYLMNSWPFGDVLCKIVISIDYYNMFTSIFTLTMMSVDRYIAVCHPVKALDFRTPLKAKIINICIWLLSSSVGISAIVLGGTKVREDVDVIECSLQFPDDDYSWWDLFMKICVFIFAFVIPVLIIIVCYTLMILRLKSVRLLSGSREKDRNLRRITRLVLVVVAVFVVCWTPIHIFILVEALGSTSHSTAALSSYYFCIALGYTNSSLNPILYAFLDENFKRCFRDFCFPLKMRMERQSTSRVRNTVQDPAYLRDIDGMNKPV
Radioligand dose displacement assays used 0.4 nM [^3H]-U69,593 (GE Healthcare, Piscataway, N.J.; 40 Ci/mmole) with 15 μg membrane protein (recombinant K opioid receptor expressed in HEK 293 cells; in-house prep) in a final volume of 200 μl binding buffer (5% DMSO, 50 mM Trizma base, pH 7.4). Non-specific binding was determined in the presence of 10 μM unlabeled naloxone or U69,593. All reactions were performed in 96-well polypropylene plates for 1 hour at a temperature of about 25° C. Binding reactions were terminated by rapid filtration onto 96-well Unifilter GF/C filter plates (Perkin Elmer, Shelton, Conn.) presoaked in 0.5% polyethylenimine (Sigma). Harvesting was performed using a 96-well tissue harvester (Perkin Elmer, Shelton, Conn.) followed by five filtration washes with 200 μl ice-cold binding buffer. Filter plates were subsequently dried at 50° C. for 1-2 hours. Fifty μl/well scintillation cocktail (Perkin Elmer, Shelton, Conn.) was added and plates were counted in a Packard Top-Count for 1 min/well.
In TABLE 1, binding affinity of certain Compounds of the Invention to the κ-opioid receptors was determined as described above.

The target of assay [2] is T2, μ-opioid receptor (Homo sapiens, UniProt P35372).
T2 construct: host or cells: HEK-293; b235 lists HEK-293, CHO or U-2 OS)
T2 sequence (P35372 whole entry, species assumed): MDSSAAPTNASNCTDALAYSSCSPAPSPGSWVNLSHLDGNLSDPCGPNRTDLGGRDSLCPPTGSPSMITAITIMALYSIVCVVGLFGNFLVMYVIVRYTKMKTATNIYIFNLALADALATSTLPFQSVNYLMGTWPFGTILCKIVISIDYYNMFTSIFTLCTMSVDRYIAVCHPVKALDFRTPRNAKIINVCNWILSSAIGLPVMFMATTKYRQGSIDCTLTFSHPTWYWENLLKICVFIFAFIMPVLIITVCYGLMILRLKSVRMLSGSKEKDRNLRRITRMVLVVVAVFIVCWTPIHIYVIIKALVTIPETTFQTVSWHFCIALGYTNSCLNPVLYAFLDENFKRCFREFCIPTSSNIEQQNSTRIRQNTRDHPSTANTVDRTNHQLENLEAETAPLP
In words: μ-opioid receptor [35S]GTPγS functional assay. The assay is classed as biochemical. As for the experimental part:
[^35S]GTPγS functional assays were conducted using freshly thawed μ-receptor membranes prepared in-house from a cell line expressing recombinant t opioid receptor in a HEK-293, CHO or U-2 OS cell background, or purchased from a commercial source (Perkin Elmer, Shelton, Conn.; or DiscovRx, Fremont, Calif.). Assay reactions were prepared by sequentially adding the following reagents to binding buffer (100 mM NaCl, 10 mM MgCl2, 20 mM HEPES, pH 7.4) on ice (final concentrations indicated): membrane protein (0.026 mg/mL), saponin ([…]), GDP ([…]) and [^35S]GTPγS (0.20 nM; Perkin Elmer, Shelton, Conn.). The prepared membrane solution (190 μl/well) was transferred to 96-shallow well polypropylene plates containing 10 al of 20× concentrated stock solutions of the agonist [D-Ala^2, N-methyl-Phe^4 Gly-ol^5]-enkephalin (DAMGO) prepared in dimethyl sulfoxide (DMSO). Plates were incubated for 30 min at about 25° C. with shaking. Reactions were terminated by rapid filtration onto 96-well Unifilter GF/B filter plates (Perkin Elmer, Shelton, Conn.) using a 96-well tissue harvester (Perkin Elmer, Shelton, Conn.) followed by three filtration washes with 200 μl of ice-cold wash buffer (10 mM NaH2PO4, 10 mM Na2HPO4, pH 7.4). Filter plates were subsequently dried at 50° C. for 2-3 hours. BetaScint scintillation cocktail (Perkin Elmer, Shelton, Conn.) was added (50 μl/well) and plates were counted using a Packard Top-Count for 1 min/well. Data were analyzed using the sigmoidal dose-response curve fitting functions in GraphPad PRISM v. 3.0, or an in-house function for non-linear, sigmoidal dose-response curve-fitting.
μGTP EC50 is the concentration of a compound providing 50% of the maximal response for the compound at a μ-opioid receptor.
μ GTP Emax (%) is the maximal effect elicited by a compound relative to the effect elicited by DAMGO, a standard agonist. Generally, the μ GTP Emax (%) value measures the efficacy of a compound to treat or prevent pain or other Conditions.
(§1) In TABLE 2, activity response of certain Compounds of the Invention to the μ- and κ-opioid receptors was determined as described above for functional assays using HEK-293 cells.

Assay [3] concerns the target T1, κ-opioid receptor. Description: κ-opioid receptor [35S]GTPγS functional assay. It counts as biochemical. Also on record: expressed in transfected cells; host or cells: HEK-293 (in-house membranes). As for the experimental part:
Functional [^35S]GTPγS binding assays were conducted as follows. K opioid receptor membrane solution was prepared by sequentially adding final concentrations of 0.026 μg/μl κ membrane protein (in-house), 10 μg/mL saponin, 3 μM GDP and 0.20 nM [^35S]GTPγS to binding buffer (100 mM NaCl, 10 mM MgCl2, 20 mM HEPES, pH 7.4) on ice. The prepared membrane solution (190 μl/well) was transferred to 96-shallow well polypropylene plates containing 10 μl of 20× concentrated stock solutions of agonist prepared in DMSO. Plates were incubated for 30 min at a temperature of about 25° C. with shaking. Reactions were terminated by rapid filtration onto 96-well Unifilter GF/B filter plates (Perkin Elmer, Shelton, Conn.) using a 96-well tissue harvester (Packard) and followed by three filtration washes with 200 μl ice-cold binding buffer (10 mM NaH2PO4, 10 mM Na2HPO4, pH 7.4). Filter plates were subsequently dried at 50° C. for 2-3 hours. Fifty μl/well scintillation cocktail (Perkin Elmer, Shelton, Conn.) was added and plates were counted in a Packard Top-Count for 1 min/well.
κ GTP EC50 is the concentration of a compound providing 50% of the maximal response for the compound at a κ receptor.
κ GTP Emax (%) is the maximal effect elicited by a compound relative to the effect elicited by U69,593.
as §1
A general note: Binding of GTPγS marks nucleotide exchange on a G protein.

As for `CN1CC[C@]23Cc4[nH]c(=O)c(C(=O)N5[C@@H]6CC[C@H]5C[C@@H](O)C6)cc4C[C@H]2[C@H]1Cc1ccc(O)cc13` [Compound 17, (6R,6aR,12aS)-2-hydroxy-9-((1R,3R,5S)-3-hydroxy-8-azabicyclo[3.2.1]octane-8-carbonyl)-15-methyl-6,6a,7,12-tetrahydro-5H-6,12a-(epiminoethano)naphtho[2,1-g]quinolin-10(11H)-one], the affinity in assay [1] corresponds to a Ki of 17.7 ± 7.6 nM. The EC50 was determined as 240 ± 36.8 nM in assay [2] and 152 ± 28.8 nM in assay [3]. Moreover, the Emax in assay [2] (maximal effect relative to the effect elicited by DAMGO, HEK-293 cells) is 27.5 ± 2.53%; in assay [3] (maximal effect relative to the effect elicited by U69,593, HEK-293 cells), 9.74 ± 1.51%.

The values are drawn from patent publication US10131666B2, “Heterocyclic morphinan derivatives and use thereof” (Purdue Pharma L.P., priority 2014, dated 2018).
